Measured values taken from patent US10765680B2, “Combination of a MCL-1 inhibitor and a taxane compound, uses and pharmaceutical compositions thereof” (priority 2017, dated 2020).

Key:
[1] = test system: HCC1143 breast cancer cell line; test: 72 hours CellTiter-Glo proliferation assay, HCC1143; format: cell-based; settings: single agent, read-out: Abs IC50
Experimental: (§1) Compounds were dissolved in 100% DMSO (Sigma, Catalog # D2438-50 ML) at a stock concentration of 10 mM and stored at −20° C. until use. Compounds were arrayed in 2 ml deep 96-well plates (Greiner bio-one, catalog number 780271) serially diluted 3-fold. Compound 1 was used over a concentration range of 0.0-10.0 μM. Paclitaxel was used over a concentration range of 0.0-1.0 μM in breast cancer cells and 0.0-2.0 μM range in lung cancer cells.
(§2) All cell lines were purchased from the American Type Culture Collection and cultured according to vendor recommendations. […] All cell lines were determined to be free of mycoplasma contamination by a PCR detection assay performed at Idexx Radil (Columbia, Mo., USA) and authenticated by SNP analysis. […] Cells were expanded to T-75 flasks and assessed for viability using a Beckman-Coulter ViCell counter prior to plating. […]
(§3) Cell proliferation was measured in 72 hours CellTiter-Glo™ (CTG) assays and all results shown are the result of at least triplicate measurements. […] After 72 hours of compound treatment the effects of compounds on cell proliferation was determined using the CellTiter-Glo™ Luminescent Cell Viability Assay (Promega, Catalog # G7573). This is a homogeneous method to determine the number of viable cells in culture based on quantitation of the ATP present, which signals the presence of metabolically active cells. […]

[2] = test system: HCC1500 breast cancer cell line; test: 72 hours CellTiter-Glo proliferation assay, HCC1500; format: cell-based; settings: single agent, read-out: Abs IC50
Experimental: as §1, §2, §3

[3] = test system: HCC1937 breast cancer cell line; test: 72 hours CellTiter-Glo proliferation assay, HCC1937; format: cell-based; settings: single agent, read-out: Abs IC50
Experimental: as §1, §2, §3

[4] = test system: MCF7 breast cancer cell line; test: 72 hours CellTiter-Glo proliferation assay, MCF7; format: cell-based; settings: single agent, read-out: Abs IC50
Experimental: as §1, §2, §3

[5] = test system: MDA-MB-157 breast cancer cell line; test: 72 hours CellTiter-Glo proliferation assay, MDA-MB-157; format: cell-based; settings: single agent, read-out: Abs IC50
Experimental: as §1, §2, §3

[6] = test system: MDA-MB-231 breast cancer cell line; test: 72 hours CellTiter-Glo proliferation assay, MDA-MB-231; format: cell-based; settings: single agent, read-out: Abs IC50
Experimental: as §1, §2, §3

[7] = test system: MDA-MB-436 breast cancer cell line; test: 72 hours CellTiter-Glo proliferation assay, MDA-MB-436; format: cell-based; settings: single agent, read-out: Abs IC50
Experimental: as §1, §2, §3

[8] = test system: SK-BR-3 breast cancer cell line; test: 72 hours CellTiter-Glo proliferation assay, SK-BR-3; format: cell-based; settings: single agent, read-out: Abs IC50
Experimental: as §1, §2, §3

[9] = test system: NCI-H522 lung cancer cell line; test: 72 hours CellTiter-Glo proliferation assay, NCI-H522; format: cell-based; settings: single agent, read-out: Abs IC50
Experimental: as §1, §2, §3

[10] = test system: A549 lung cancer cell line; test: 72 hours CellTiter-Glo proliferation assay, A549; format: cell-based; settings: single agent, read-out: Abs IC50
Experimental: as §1, §2, §3

[11] = MDA-MB-231 breast xenograft model, tolerability and surviving animals; format: in vivo, female nude rats; settings: Compound 1 50 mg/kg dosed 0.5 h or 16 h after vehicle for paclitaxel
Experimental: This study evaluated the antitumor activity and tolerability of Compound 1 in combination with paclitaxel in the triple negative breast cancer (TNBC) model, MDA-MB-231, in female NTac:NIH-Whn nude rats (Taconic).
Compound 1 (free base) and paclitaxel (Sandoz) was used in these studies. Paclitaxel was diluted as per manufacturer's instruction with sterile 5% (w/v) glucose solution to 1.5 mg/ml to administer 7.5 mg/kg in 5 ml/kg dose volume [final ethanol and Cremophor EL concentration was 10 and 15%, respectively in 5% (w/v) glucose solution]. Compound 1 was formulated in a liposomal formulation (Novartis) at 5 mg/ml to administer 50 mg/kg dose in 10 ml/kg dose volume.
MDA-MB-231, a triple negative breast cancer cell line, was obtained from ATCC cell bank. […] Tumor growth was monitored regularly post cell inoculation and animals were randomised into treatment groups (n=7-8) with a mean tumor volume of about 400 mm^3. […]
The vehicle for paclitaxel or paclitaxel was administered once a week (QW) as a slow bolus dose via a caudal vein 0.5 h or 16 h before the vehicle for Compound 1 or Compound 1 itself in liposomal formulation and these were administered by iv infusion over 15 minutes in a caudal vein. […] Tumor volumes were measured using calipers 2-3 times per week. Tumor size, in mm^3, was calculated from: (L×W^2×π/6), where W=width and L=length of the tumor. […]

## COc1ccccc1-c1nccc(COc2ccccc2C[C@@H](Oc2ncnc3sc(-c4ccc(F)cc4)c(-c4ccc(OCCN5CCN(C)CC5)c(Cl)c4C)c23)C(=O)O)n1 [Compound 1, (2R)-2-{[(5Sa)-5-{3-chloro-2-methyl-4-[2-(4-methylpiperazin-1-yl)ethoxy]phenyl}-6-(4-fluorophenyl)thieno[2,3-d]pyrimidin-4-yl]oxy}-3-(2-{[2-(2-methoxyphenyl)pyrimidin-4-yl]methoxy}phenyl)propanoic acid]
[1]
  IC50: > 10000 nM
[2]
  IC50: 258 nM
[3]
  IC50: 137 nM
[4]
  IC50: 1290 nM
[5]
  IC50: > 10000 nM
[6]
  IC50: > 10000 nM
[7]
  IC50: > 10000 nM
[8]
  IC50: 301 nM
[9]
  IC50: 713 nM
[10]
  IC50: > 10000 nM
[11]
  tolerability: well tolerated
